“Also recorded” adds a separate entry of the source. Like-named read-outs stand apart in the source and are kept apart here.
Assays:
[1] = system: DNMT1; test: Serial patient bone marrow biopsies, DNMT1 immunohistochemistry; format: in vivo, human; conditions: for decrease of DNMT1 protein at time-of-response compared to pre-treatment: 13 patients
From the text: (§1) Serial bone marrow biopsies from the same patient were cut onto the same slide, stained for DNMT1, and the number of DNMT1-positive nuclei was quantified objectively using ImageIQ software in 13 patients and positive/negative controls (tissue blocks of HCT116 wild-type and DNMT1-knockout cells respectively). D=days of therapy. Pre-Rx=pre-treatment; HI=hematologic improvement; CR=complete remission; SD=stable disease; Rel.=relapse. Mean±SD of ×3 image segments (cellular regions) per sample; p-value paired t-test, 2-sided. C) Expression of key pyrimidine metabolism enzymes at relapse/progression on Dec. […] Bone marrow cells aspirated pre-treatment and at relapse/progression on Dec (13 patients, median duration of therapy 175 days, range 97-922) or 5Aza (14 patients, median duration of therapy 433 days, range 61-1155) were analyzed by QRT-PCR. Mean±SD technical replicates×3. Paired t-test, 2-sided. D) Expression by Western blot of DNMT1 and key pyrimidine metabolism enzymes in Dec-resistant AML cells (THP1, K562, OCI-AML3 and MOLM13), and in parental THP1 AML cells treated with vehicle, Dec or 5-azacytidine (5Aza). Western blots.
(§2) Study approvals. Bone marrow samples for research were obtained from patients with AML (Acute myeloid leukemia) with written informed consent on a study protocol approved by the Cleveland Clinic Institutional Review Board (Cleveland, Ohio). Murine experiments were approved by the Cleveland Clinic Institutional Animal Care and Use Committee (Cleveland, Ohio). Sources of cell lines and animals. […] DNMT1 Immuno-detection and quantitation: Immunohistochemistry (IHC) was performed on decalcified and formalin-fixed paraffin embedded bone marrow biopsy sections (4 μm) and on positive and negative controls (parental and DNMT1-KO HCT116 cells). […] Nuclei positive for DNMT1 were identified and quantified in high resolution, large field-of-view images per ImageIQ algorithms (Image IQ Inc., Cleveland, OH) after segmentation of images and subtraction of bone as has been previously described^4.

[2] = system: dCTP, dTTP and pyrimidine metabolism enzymes; test: AML cells: nucleotide levels (LCMS/MS) and enzyme expression (QRT-PCR, Western blot); format: cell-based
Experimental: (§3) A) Experiment schema. Vehicle, natural deoxycytidine (dC) 0.5 uM, natural cytidine (C) 5 uM, Dec 0.5 uM, or 5Aza 5 uM were added once to AML cells at 0 hours. B) Cell counts. By automated counter. Means±SD for 3 independent biological replicates for each cell line. C) Dec and 5Aza have opposite effects on dCTP levels. Measured by LCMS/MS 24 hrs after addition of Dec or 5Aza. Analyses of 2 or more independent nucleotide extractions from 3 different AML cells lines. Means±SD; p-values paired t-test, 1-sided. D) Gene expression 72 hours after Dec or 5Aza. Gene expression by QRT-PCR, relative to average expression in vehicle-treated controls. Means±SD for 3 independent biological replicates in each of 3 AML cell lines; p-values unpaired t-test vs vehicle, 2-sided. E) Western blot 72 hours after Dec or 5Aza. AML cells THP1, OCI-AML3 and K562. Western blots were reproduced in three independent biological replicates.
C) Off-target pathways of Dec and 5Aza. D) Effects of Dec and 5Aza on RRM2A, RRM2B and CTPS1 protein levels. Western blots 72 hours after addition of a single dose of Dec 0.25 μM or 5Aza 2.5 uM. Western blots were reproduced in biological replicates.

[3] = system: parental HAP1 leukemia cells; test: Growth inhibition of parental HAP1 leukemia cells; format: cell-based; conditions: Homo sapiens
From the text: (§4) A) DCK and UCK2 knockout (KO) were confirmed by Western blot. HAP1 leukemia cells, KO by CRISPR-Cas9. B) DCK-KO lowers dCTP and UCK2-KO lowers dTTP. Analysis of independent nucleotide extractions. Means±SD; p-values unpaired t-test, 2-sided. C) Sensitivity of Wildtype, DCK-KO and UCK2-KO HAP1 leukemia cells to Dec vs 5Aza. Means±SD of 3 independent biological replicates.
as §2

[4] = system: DCK, UCK2, CDA and CAD; test: Patients' bone marrow enzyme expression pre-treatment vs relapse, QRT-PCR; format: in vivo, human; conditions: MDS patients' bone marrow; for average increase of CAD expression at relapse: not in all patients
From the text: as §1
DNA isolation, reverse transcription (RT) and real-time PCR. As previously described^59. Primer sequences were:
CAD increased an average of ˜8-fold at relapse on either pro-drug, but not in all patients (FIG. 23C). The proliferation marker MKI67 increased at relapse in almost all the patients, consistent with active progression of disease (FIG. 23C).

[5] = system: AML cells (MOLM13, OCI-AML3, THP1); test: AML cell proliferation after a single dose; format: cell-based; conditions: decitabine, deoxycytidine 0.5 μM, 5-azacytidine, cytidine 5 μM
Experimental: as §3

[6] = system: UCK2-knockout HAP1 leukemia cells; test: Growth inhibition of UCK2-knockout HAP1 leukemia cells; format: cell-based; conditions: Homo sapiens
From the text: as §4, §2

[7] = system: DCK-knockout HAP1 leukemia cells; test: Growth inhibition of DCK-knockout HAP1 leukemia cells; format: cell-based; conditions: Homo sapiens
From the text: as §4, §2

[8] = system: F1339 p53-null SCLC cells; test: F1339 SCLC cells in vitro: proliferation, apoptosis, differentiation; format: cell-based, murine
Experimental: (§5) FIG. 2. […] F1339 p53-null cancer cells were seeded at D0 and treated with DMSO, deoxycytidine (DC, 0.5 μM), cytidine (CY, 5 μM), Dec (0.5 μM) and 5Aza (5 μM). […] Cell counts by automated counter, mean±SD. […] Gene expression by Q-PCR, median±interquartile range (IQR) (3 biological replicates), *p<0.05, **p<0.01. 2-sided Mann-Whitney test. […] Western blot.

[9] = system: DCK; conditions: leukemia cells, within 48 hours; cited from earlier work
[10] = system: LL3 lung cancer cells; test: Syngeneic disseminated lung cancer model (LL3, tail vein); format: in vivo, C57BL/6 mice; conditions: for increase of time-to-distress over vehicle: treatment from day 21, Dec 0.2, THU-Dec 10/0.1, 5Aza 2, THU-5Aza 10/1 mg/kg sc 3×/wk
From the text: (§6) 2-sided Mann-Whitney test.
as §6, §6

[11] = cited from earlier work
[12] = system: Dck, Uck2, Cda and Cad; test: F1339 cells: pyrimidine metabolism enzyme expression by QRT-PCR and Western blot; format: cell-based, murine
Experimental: as §5
RNA was extracted using Trizol reagent (Invitrogen) before the generation of complementary DNA using the iScript™ cDNA Synthesis Kit (Bio-rad). Quantitative PCR was run on StepOnePlus Real-Time PCR System (Applied Biosystems), using comparative Ct value method to quantify the expression of target genes in different samples. Gene expression was normalized to the housekeeping gene β-actin.
Tumor cells were lysed with RIPA lysis buffer and protein concentrations determined by BCA protein assay kit (Thermo Fisher Scientific). Samples with equal quantity (40 μg) of total protein were mixed with 4× loading buffer and 10× sample reducing reagent (Thermo Fisher Scientific), subjected to electrophoresis on a 12% (v/v) SDS-polyacrylamide gel, then transferred onto polyvinylidene fluoride membranes. After blocking with 5% dried skimmed milk, the membranes were washed three times and incubated with primary antibodies at 4° C. overnight. After washing, the membranes were further incubated with corresponding horseradish peroxidase-conjugated secondary antibodies. The membranes were then treated with Pierce™ ECL substrates (Thermo Scientific) then visualized using X-ray film.

[13] = system: patient-derived AML cells; test: Patient-derived xenotransplant (PDX) model of chemorefractory AML; conditions: for added benefit of ribonucleotide reductase inhibitor to THU+decitabine: dT 2 g/kg IP, hydroxyurea 100 mg/kg IP Day 1 before THU+decitabine days 2 and 3; for human CD45+ (hCD45+) AML cells in bone marrow: Day 45
From the text: NSG mice were tail-vein inoculated with patient-derived AML cells (1×10^6 cells/mouse) and randomized to (i) PBS vehicle control; (ii) CDA-inhibition by intra-peritoneal (IP) tetrahydrouridine (THU) and de novo pyrimidine synthesis inhibition by IP thymidine (dT); (iii) Dec; (iv) THU and Dec; (v) THU, Dec and dT (n=5/group). PBS, THU+dT mice were euthanized for distress on D42, and other mice were sacrificed for analysis on D63. […] C) Bone marrow human (hCD45) and murine (mCd45) myelopoiesis content. Flow-cytometry. Median±IQR. p-value Mann-Whitney test 2-sided. […] Median±IQR. p-value Mann-Whitney test 2-sided.
NSG mice were tail-vein inoculated with patient-derived AML cells (1×10^6 cells/mouse) and on Day 9 after inoculation randomized to the treatments as shown (n=7/group). Mice were euthanized if there were signs of distress. A) Experiment schema; B) Time-to-distress and euthanasia. C) Bone marrow human (hCD45) and murine (mCd45) myelopoiesis content. Femoral bones flushed after euthanasia. Measured by flow-cytometry. Median±IQR. D) Spleen weights at time-of-distress/euthanasia. Median±IQR. E) Spleens at the time-of-distress/euthanasia.
NSG mice were tail-vein inoculated with patient-derived AML cells (1×10^6 cells/mouse) and randomized to the treatments shown (n=5/group). Blood counts were obtained periodically by tail-vein phlebotomy. Mice were euthanized for signs of distress. A) Experiment schema; B) Time-to-distress. Log-rank test. […] D) Bone marrow replacement by AML. Bone marrow human and murine CD45+ cells measured by flow-cytometry (FIG. 32) after euthanasia (time-points panel B). Median±IQR. p-value Mann-Whitney test 2-sided. […] Flow cytometry (FIG. 33).
C) Percentage of human CD45+ (huCD45) positive cells in bone marrow. Flow cytometry. Median±IQR. p-value Mann-Whitney test 2-sided. 5 mice in each treatment group analyzed.
Mice were euthanized for signs of distress. A) Experiment schema; B) Time-to-distress. p-value Log-rank test. C) Bone marrow human leukemia cell burden at time-of-distress. Flow cytometry for human CD45+ cells. Median±IQR. p-value Mann-Whitney test 2-sided. […] E) Spleen weights at time-of-distress. Median±IQR. p-value Mann-Whitney test 2-sided.
NSG mice were tail-vein inoculated with patient-derived AML cells (1×10^6 cells/mouse) and on Day 5 after inoculation randomized to the treatments as shown (n=7/group). Mice were euthanized if there were signs of distress.

[14] = system: thoracic malignancies; conditions: cited from earlier work
[15] = THU+dT day 42, other treatments day 63
[16] = HAP1, read-out: GI50 (concentration for 50% growth inhibition)
[17] = lung cancer cells, within 72-96 hours

For `Nc1ncn([C@@H]2O[C@H](CO)[C@@H](O)[C@H]2O)c(=O)n1` [5-azacytidine], the “DNMT1 protein at time-of-relapse on-therapy” value [1] was “rebounded to levels comparable to pre-treatment levels”, the “decrease of DNMT1 protein at time-of-response compared to pre-treatment” value [1] was roughly 50% and the DNMT1 protein [2] was “depleted DNMT1”. For the same compound, the RRM1 protein [2] was “decreased levels of the ribonucleotide reductase sub-unit RRM1”, the TYMS protein [2] was “downregulated” and the dCTP amount ([2]; 24 hour time-point) was “significantly decreased”. The dTTP amount ([2]; 24 hour time-point) was “decreased by both pro-drugs, but not to statistical significance”, the “CDA mRNA and protein expression” value ([2]; 72 hour time-point) was “significantly increased” and the “DCK mRNA and protein expression” value ([2]; 72 hour time-point) was “significantly increased”. For the same compound, the “phosphorylation of CAD at serine 1856” value ([2]; 72 hour time-point) was “decrease phosphorylation of CAD at serine 1856”, the “total CAD or CTPS1 levels” value ([2]; 72 hour time-point) was “Neither pro-drug changed total CAD” and the GI50 ([3]; HAP1, parental cells, read-out: GI50 (concentration for 50% growth inhibition)) was 4 µM. The “decrease of CDA expression at relapse” value [4] was roughly 50%, the “decrease of UCK2 expression at relapse” value [4] was roughly 50% and the “increase of DCK expression at relapse” value [4] was roughly 8 fold. The “average increase of CAD expression at relapse” value [4] was roughly 8 fold, the AML cell proliferation [5] was “significantly decreased AML cell proliferation” and the GI50 ([6]; HAP1, UCK2-knockout cells, read-out: GI50 (concentration for 50% growth inhibition)) was 15 µM. For the same compound, the GI50 ([7]; HAP1, DCK-knockout cells, read-out: GI50 (concentration for 50% growth inhibition)) was 2 µM, the “cell membrane Annexin-V staining (apoptosis-induction)” value ([8]; 24 hours after initiation of drug exposure) was “unaltered cell membrane Annexin-V staining” and the “morphologic changes of differentiation” value ([8]; Giemsa-stained cytospins Day 5) was “induced morphologic changes in the cells consistent with differentiation induction”. For the same compound, the Myc protein ([8]; Western blot Day 5) was “decreased Myc protein”, the p27/CDKN1B protein ([8]; Western blot Day 5) was “increased p27/CDKN1B protein” and the F1339 proliferation ([8]; decitabine 0.5 μM, 5-azacytidine 5 μM, cytarabine 0.5 μM) was “significantly decreased F1339 proliferation; also recorded: did significantly impede the SCLC cell proliferation”. For the same compound, the DCK upregulation [9] was roughly 30%, the “increase of time-to-distress over vehicle” value [10] was “about 20 days” and the “in vivo plasma half-life” value [11] was roughly 15 min. For the same compound, the “expression of Dck, Uck2, Cda and Cad” value ([12]; decitabine 0.5 μM, 5-azacytidine 5 μM) was “increased Dck, Cda and Cad expression several-fold”, the CAD upregulation ([12]; lung cancer cells) was roughly 2 fold and the DCK upregulation ([12]; lung cancer cells) was roughly 3 fold.

In the case of `O=C1NC(O)CCN1[C@@H]1O[C@H](CO)[C@@H](O)[C@H]1O` (stereo partly drawn) [THU, tetrahydrouridine], the “increase of efficacy of decitabine or 5-azacytidine by THU” value ([10]; in vivo studies of murine lung cancer) is given as roughly 2 fold, the myelosuppression ([10]; murine models of lung cancer) is given as “without bone marrow suppression” and the “increase of oral bioavailability of decitabine and 5-azacytidine” value ([11]; addition of THU) is given as roughly 10 fold. For the same compound, the “increase of plasma half-lives of decitabine and 5-azacytidine” value ([11]; addition of THU) was roughly 10 fold.

For `Nc1ccn([C@@H]2O[C@H](CO)[C@@H](O)[C@H]2O)c(=O)n1` [cytidine], the AML cell proliferation [5] was “did not impact proliferation”.

With `Cc1cn([C@H]2C[C@H](O)[C@@H](CO)O2)c(=O)[nH]c1=O` [dT, deoxythymidine] the “added benefit of ribonucleotide reductase inhibitor to THU+decitabine” value [13] was “did not add further to the benefit from THU”.

In the case of `Nc1ncn([C@H]2C[C@H](O)[C@@H](CO)O2)c(=O)n1` [decitabine], the “decrease of DNMT1 protein at time-of-response compared to pre-treatment” value [1] is given as roughly 50%, the myelosuppression ([14]; human, in vivo) is given as “grade ¾ myelosuppression” and the sustained plasma concentration ([14]; intravenous infusion, for ~72 hours) is given as greater than 40 nM. For the same compound, the “median survival (time-to-distress)” value ([13]; Dec 0.2 mpk SC Day 1 and 2 each week) was 75 days, the “median survival (time-to-distress)” value ([13]; Dec 0.2 mpk SC Day 1 and 4 each week) was 60 days and the “human CD45+ (hCD45+) AML cells in bone marrow” value ([13]; Dec 0.3 mpk SC Day 1 and 2 each week) was roughly 26%. The “human CD45+ (hCD45+) AML cells in bone marrow” value ([13]; Dec 0.3 mpk SC Day 1 and 4 each week) was roughly 63%, the “bone marrow hCD45+” value [13, 15] was roughly 85% and the “bone marrow murine Cd45+ (murine hematopoiesis)” value [13, 15] was roughly 5%. The “DNMT1-depletion in bone marrow cells” value ([13]; day 63, on-therapy, flow cytometry) was roughly 35%, the “median survival (time-to-distress)” value ([13]; week-to-week alternation experiment (FIG. 28)) was 111 days and the GI50 [3, 16] was 3 µM. For the same compound, the “decrease of DCK expression at relapse” value [4] was roughly 50%, the “increase of CDA expression at relapse” value [4] was roughly 3 fold and the “increase of UCK2 expression at relapse” value [4] was roughly 8 fold. For the same compound, the “average increase of CAD expression at relapse” value [4] was roughly 8 fold, the GI50 [6, 16] was 0.1 µM and the GI50 [7, 16] was 12 µM. For the same compound, the “increase of time-to-distress over vehicle” value [10] was “about 20 days”, the “in vivo plasma half-life” value [11] was roughly 15 min and the CDA upregulation [12, 17] was roughly 3 fold. It also gave a UCK2 upregulation [12, 17] of roughly 3 fold.

For `Nc1ccn([C@H]2C[C@H](O)[C@@H](CO)O2)c(=O)n1` [deoxycytidine], the AML cell proliferation [5] was “did not impact proliferation”.

For `NC(=O)NO` [hydroxyurea], the “added benefit of ribonucleotide reductase inhibitor to THU+decitabine” value [13] was “did not add further benefit to THU+decitabine”.

Source: patent US20260076988A1 (The Cleveland Clinic Foundation, priority 2019, published 2026)
